From article PMC4750397 (Clinical lung cancer, 2015)
Marks after values point to notes of the source that are not given here. Blank lines part the entries; values can stand above or below the compound they belong to.

How the values were obtained:
[1] = Plasma pharmacokinetics of regorafenib, M-2 and M-5; assay type: in vivo, human; details: for tmax,md: median (range printed in cell); for tmax,md / AUC(0–24)md Ratio (90% CI) / Cmax,md Ratio (90% CI): n = 6; for AUC(0–24)md Ratio (90% CI) / Cmax,md Ratio (90% CI): Ratio = C2D1:C1D21; for coefficient of variation (CV) in AUC and Cmax: high variability, Table 3A; for Tmax: human, plasma, oral
[2] = Plasma pharmacokinetics of pemetrexed; assay type: in vivo, human
human xenograft models = details: greater potency than sorafenib; ref [4], [22]; cited from earlier work
[3] = system: patients with advanced nsNSCLCs; details: single agent, ref [7], cited from earlier work
patients with NSCLCs = details: sunitinib added to cisplatin and pemetrexed; ref [20]; cited from earlier work
[4] = C2 D1, following cisplatin and pemetrexed
[5] = Cycle 1, Day 1 vs Cycle 2, Day 1

tmax,md ([1]; C1 D21, regorafenib alone): 4.0 (2–24 ^a) hours
tmax,md [1, 4]: 5.0 (0–6.25 ^a) hours
mean AUC(0–24)md lower following the pemetrexed and cisplatin treatment ([1]; C2 D1 vs C1 D21): 48%
mean Cmax,md lower following the pemetrexed and cisplatin treatment ([1]; C2 D1 vs C1 D21): 38%
AUC(0–24)md Ratio (90% CI) [1]: 0.52 (0.44–0.61)
Cmax,md Ratio (90% CI) [1]: 0.62 (0.46–0.83)
coefficient of variation (CV) in AUC and Cmax [1]: > 75%
SMILES: CNC(=O)c1cc(Oc2ccc(NC(=O)Nc3ccc(Cl)c(C(F)(F)F)c3)c(F)c2)cc[n+]1[O-] [M-2]

tmax,md ([1]; C1 D21, regorafenib alone): 16.0 (4–24 ^a) hours
tmax,md [1, 4]: 5.0(0–6.25 ^a) hours
Mean AUC(0–24)md and Cmax,md on both days (in words) ([1]; C2 D1 vs C1 D21): comparable
AUC(0–24)md Ratio (90% CI) [1]: 0.84 (0.67–1.06)
Cmax,md Ratio (90% CI) [1]: 0.97 (0.78–1.20)
coefficient of variation (CV) in AUC and Cmax [1]: > 150%
SMILES: NC(=O)c1cc(Oc2ccc(NC(=O)Nc3ccc(Cl)c(C(F)(F)F)c3)c(F)c2)cc[n+]1[O-] [M-5]

mean AUC on both days (in words) [2, 5]: comparable
mean pemetrexed concentration, before vs after regorafenib (in words) [2, 5]: no difference
Cmax after regorafenib (in words) ([2]; Cycle 2, Day 1 vs Cycle 1, Day 1): slightly increased
AUC(0–infinity) Ratio (90% CI) ([2]; Ratio = C2D1:C1D1, n = 8): 1.05 (0.96–1.16)
Cmax Ratio (90% CI) ([2]; Ratio = C2D1:C1D1, n = 8): 1.20 (1.05–1.35)
SMILES: Nc1nc2[nH]cc(CCc3ccc(C(=O)N[C@@H](CCC(=O)O)C(=O)O)cc3)c2c(=O)[nH]1 [Pemetrexed]

Mean AUC(0–24)md and Cmax,md on both days (in words) ([1]; C2 D1 vs C1 D21): comparable
AUC(0–24)md Ratio (90% CI) [1]: 0.93 (0.77–1.12)
Cmax,md Ratio (90% CI) [1]: 1.03 (0.70–1.51)
Tmax [1]: 4 h
Tmax ([1]; 60 mg/day): 4 h
SMILES: CNC(=O)c1cc(Oc2ccc(NC(=O)Nc3ccc(Cl)c(C(F)(F)F)c3)c(F)c2)ccn1 [Regorafenib, reference compound]
potency in human xenograft models relative to sorafenib (human xenograft models): ~ 3 times
patients with stable disease for ≥12 weeks ([3]; 4 of 18 evaluable patients): 22%
Grade 4 or 5 toxicities ([3]; 23 patients): no Grade 4 or 5 toxicities were observed
progression-free survival of one patient ([3]; one patient): ~40 weeks
tumor reduction in one patient ([3]; two non-consecutive measurements): > 30%

SMILES: CCN(CC)CCNC(=O)c1c(C)[nH]c(/C=C2\C(=O)Nc3ccc(F)cc32)c1C [sunitinib]
myelosuppression (patients with NSCLCs): substantial myelosuppression
